Data on 43 molecules can be found in patent US20260097037A1, “FUSED RING COMPOUND HAVING GLP-1 RECEPTOR AGONIST EFFECT” (Shionogi & Co., Ltd., priority 2022, published 2026).

The target of this experiment is T1, Human GLP-1 receptor stably expressing cells (hGLP-1R/CHO-K1 cells) (Homo sapiens, UniProt P43220).
T1 construct: expressed in transfected cells
Nature of the experiment: Measurement of GLP-1 receptor agonist activity (cAMP assay). The experiment is classed as cell-based. Particulars: for Emax: CHO-K1, maximum effect, cAMP with 2 nM human GLP-1 (7-36) = 100%, DMSO only = 0%, read-out: Emax; for EC50: increase in cAMP concentration in hGLP-1R/CHO-K1 cells, 37° C. 1 hour. The gist of the method:
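hGLP-1R/CHO-K1 cells (cryopreserved) incubated with compound and forskolin in HBSS with 0.1% BSA, IBMX and RO20-1724, 1 h at 37° C; cAMP read by HTRF. EC50 and Emax from cAMP rise, normalised to 2 nM human GLP-1 (7-36) (100%) and DMSO (0%).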
In general terms: Cyclic AMP is a second messenger, typically raised through Gs and lowered through Gi signalling.

A word on the Emax: it is the size of the effect at its maximum, as opposed to the concentration needed. By EC50 is commonly meant the midpoint of the concentration-response curve. Higher therefore signals a need for much substance.

T1 sequence (P43220 24-463): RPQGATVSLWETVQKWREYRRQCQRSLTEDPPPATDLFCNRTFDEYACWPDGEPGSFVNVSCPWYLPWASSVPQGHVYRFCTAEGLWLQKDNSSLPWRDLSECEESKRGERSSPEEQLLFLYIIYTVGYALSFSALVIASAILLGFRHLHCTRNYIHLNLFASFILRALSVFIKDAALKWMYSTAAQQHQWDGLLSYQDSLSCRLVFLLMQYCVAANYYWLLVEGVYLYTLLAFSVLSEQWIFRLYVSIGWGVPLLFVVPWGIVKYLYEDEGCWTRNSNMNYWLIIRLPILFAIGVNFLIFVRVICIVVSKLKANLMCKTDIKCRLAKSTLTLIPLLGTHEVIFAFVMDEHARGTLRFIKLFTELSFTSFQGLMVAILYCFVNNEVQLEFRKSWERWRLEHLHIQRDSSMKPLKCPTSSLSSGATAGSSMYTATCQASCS

For `COc1cc(C(=O)O)cc2c1nc(CN1CCc3cc(C#N)c(OCc4cc(F)c(Cl)cc4F)nc3[C@@H]1C)n2C[C@@H]1CCO1` [Compound I-146], the maximum response (Emax) was determined as 115% and the midpoint of the response, the EC50, lay at 0.0293 nM.

As to `COc1cc(C(=O)O)cc2c1nc(CN1CCc3cc(C#N)c(OCc4ccc(Cl)cn4)nc3[C@@H]1C)n2C[C@@H]1CCO1` [Compound I-147], the Emax amounted to 128% and the midpoint of the response, the EC50, lay at 0.162 nM.

As for `C[C@H]1c2nc(OCc3cc(Cl)cs3)c(C(F)(F)F)cc2CCN1Cc1nc2ccc(C(=O)O)cc2n1C[C@@H]1CCO1` [Compound I-148], the Emax was 99.3% and a half-maximal effect (EC50) was put at 0.89 nM.

For the molecule `C[C@H]1c2nc(OCc3nc(Cl)cs3)c(C(F)(F)F)cc2CCN1Cc1nc2ccc(C(=O)O)cc2n1C[C@@H]1CCO1` [Compound I-149], the Emax came to 97.7% and the EC50 is 1.09 nM.

As to `COc1cc(C(=O)O)cc2c1nc(CN1CCc3cc(C(F)(F)F)c(NCc4ccc(Cl)cc4F)nc3[C@@H]1C)n2C[C@@H]1CCO1` [Compound I-150], the Emax turned out to be 105% and the EC50 worked out at 0.0391 nM.

As for `C[C@H]1c2nc(NCc3ccc(Cl)cc3F)c(C(F)(F)F)cc2CCN1Cc1nc2c(Cl)cc(C(=O)O)cc2n1C[C@@H]1CCO1` [Compound I-151], the maximal effect (Emax) was 92.7% and the concentration giving a half-maximal response (EC50) came to 0.0738 nM.

Take `C[C@H]1c2nc(NCc3ccc(Cl)cc3F)c(C(F)(F)F)cc2CCN1Cc1nc2c(F)cc(C(=O)O)cc2n1C[C@@H]1CCO1` [Compound I-152]: the Emax was found to be 105% and the response was half-maximal at 0.0992 nM (EC50).

For `C[C@H]1c2nc(NCc3ccc(Cl)cc3F)c(C(F)(F)F)cc2CCN1Cc1nc2ccc(C(=O)O)c(F)c2n1C[C@@H]1CCO1` [Compound I-153], the Emax turned out to be 112% and the EC50 came to 0.19 nM.

For `C[C@H]1c2nc(OCc3cc(Cl)n(C)n3)c(C(F)(F)F)cc2CCN1Cc1nc2ccc(C(=O)O)cc2n1C[C@@H]1CCO1` [Compound I-154], the maximal effect (Emax) came out at 101% and it took 7.04 nM to reach a half-maximal effect (EC50).

On to `COc1cc(C(=O)O)cc2c1nc(CN1CCc3cc(C(F)(F)F)c(OCc4cc(Cl)n(C)n4)nc3[C@@H]1C)n2C[C@@H]1CCO1` [Compound I-155], for which the Emax is 96.3% and a half-maximal response (EC50) required 0.87 nM.

With `C[C@H]1c2c(cc(C(F)(F)F)c3c2O[C@@](C)(c2ccc(Cl)cn2)O3)CCN1Cc1nc2c(F)cc(C(=O)O)cc2n1C[C@@H]1CCO1` [Compound I-156], the Emax came to 101% and the EC50 worked out at 0.671 nM.

Take `C[C@H]1c2c(cc(C(F)(F)F)c3c2O[C@@](C)(c2ccc(Cl)cn2)O3)CCN1Cc1nc2c(Cl)cc(C(=O)O)cc2n1C[C@@H]1CCO1` [Compound I-158]: the Emax is 111% and the 50% effective concentration (EC50) amounted to 0.493 nM.

For `COc1cc(C(=O)O)cc2c1nc(CN1CCc3cc(C(F)(F)F)c4c(c3[C@@H]1C)O[C@@](C)(c1ccc(Cl)cn1)O4)n2C[C@@H]1CCO1` [Compound I-159], the Emax is 99.3% and a half-maximal response (EC50) required 0.155 nM.

On to `Cc1nc(COc2nc3c(cc2C(F)(F)F)CCN(Cc2nc4ccc(C(=O)O)cc4n2C[C@@H]2CCO2)[C@H]3C)no1` [Compound I-160], for which the Emax stood at 66.3% and the EC50 was 83.5 nM.

As to `Cc1nonc1COc1nc2c(cc1C(F)(F)F)CCN(Cc1nc3ccc(C(=O)O)cc3n1C[C@@H]1CCO1)[C@H]2C` [Compound I-161], the Emax amounted to 73% and a half-maximal response (EC50) required 28.2 nM.

As to `Cc1noc(COc2nc3c(cc2C(F)(F)F)CCN(Cc2nc4ccc(C(=O)O)cc4n2C[C@@H]2CCO2)[C@H]3C)n1` [Compound I-162], the Emax was 88% and the EC50 amounted to 26 nM.

With `C[C@H]1c2nc(OCc3nc4ccccn4n3)c(C(F)(F)F)cc2CCN1Cc1nc2ccc(C(=O)O)cc2n1C[C@@H]1CCO1` [Compound I-163], the Emax amounted to 83.3% and the response was half-maximal at 32.3 nM (EC50).

Take `C[C@H]1c2c(cc(C(F)(F)F)c3c2O[C@@](C)(c2ccc(Cl)cc2F)O3)CCN1Cc1nc2c(F)cc(C(=O)O)cc2n1C[C@@H]1CCO1` [Compound I-164]: the Emax is 108% and the EC50 was 1.63 nM.

Take `C[C@H]1c2nc(OCc3ccc(C#N)c4occc34)c(C(F)(F)F)cc2CCN1Cc1nc2ccc(C(=O)O)cc2n1C[C@@H]1CCO1` [Compound I-165]: the Emax turned out to be 111% and the EC50 is 0.965 nM.

In the case of `C[C@H]1c2nc(NCc3ccc(Cl)cc3Cl)c(C(F)(F)F)cc2CCN1Cc1nc2c(F)cc(C(=O)O)cc2n1C[C@@H]1CCO1` [Compound I-166], the Emax is 109% and the EC50 is 0.205 nM.

Take `COc1cc(C(=O)O)cc2c1nc(CN1CCc3cc(C(F)(F)F)c(NCc4ccc(Cl)cc4)nc3[C@@H]1C)n2C[C@@H]1CCO1` [Compound I-167]: the Emax is 122% and the EC50 stood at 0.052 nM.

With `C[C@H]1c2nc(NCc3ccc(Cl)cc3)c(C(F)(F)F)cc2CCN1Cc1nc2c(Cl)cc(C(=O)O)cc2n1C[C@@H]1CCO1` [Compound I-168], the Emax is 104% and a half-maximal response (EC50) required 0.193 nM.

Take `C[C@H]1c2nc(NCc3ccc(Cl)cc3)c(C(F)(F)F)cc2CCN1Cc1nc2c(F)cc(C(=O)O)cc2n1C[C@@H]1CCO1` [Compound I-169]: the Emax stood at 109% and it took 0.191 nM to reach a half-maximal effect (EC50).

Regarding `COc1cc(C(=O)O)cc2c1nc(CN1CCc3cc(C(F)(F)F)c4c(c3[C@@H]1C)O[C@@](C)(c1ccc(Cl)cc1F)O4)n2C[C@@H]1CCO1` [Compound I-170], the Emax is 105% and the EC50 was 0.243 nM.

With `COc1cc(C(=O)O)cc2c1nc(CN1CCc3cc(C(F)(F)F)c(NCc4c(F)cc(Cl)cc4F)nc3[C@@H]1C)n2C[C@@H]1CCO1` [Compound I-171], the Emax was 124% and the EC50 was 0.0152 nM.

With `C[C@H]1c2nc(NCc3c(F)cc(Cl)cc3F)c(C(F)(F)F)cc2CCN1Cc1nc2c(Cl)cc(C(=O)O)cc2n1C[C@@H]1CCO1` [Compound I-172], the Emax stood at 106% and the EC50 turned out to be 0.0353 nM.

Turning to `C[C@H]1c2nc(NCc3c(F)cc(Cl)cc3F)c(C(F)(F)F)cc2CCN1Cc1nc2c(F)cc(C(=O)O)cc2n1C[C@@H]1CCO1` [Compound I-173], the Emax is 99.7% and the EC50 is 0.0889 nM.

Turning to `C[C@H]1c2nc(OCc3ccc(Cl)cc3F)c(C(F)(F)F)nc2CCN1Cc1nc2ccc(C(=O)O)cc2n1C[C@@H]1CCO1` [Compound I-174], the Emax is 96.3% and the 50% effective concentration (EC50) stood at 0.174 nM.

For the molecule `C[C@H]1c2nc(NCc3cc(F)c(Cl)cc3F)c(C(F)(F)F)cc2CCN1Cc1nc2c(F)cc(C(=O)O)cc2n1C[C@@H]1CCO1` [Compound I-175], the Emax turned out to be 107% and the EC50 turned out to be 0.0831 nM.

As to `C[C@H]1c2nc(NCc3cc(F)c(Cl)cc3F)c(C(F)(F)F)cc2CCN1Cc1nc2c(Cl)cc(C(=O)O)cc2n1C[C@@H]1CCO1` [Compound I-176], the Emax came out at 112% and the response was half-maximal at 0.0693 nM (EC50).

As to `COc1cc(C(=O)O)cc2c1nc(CN1CCc3cc(C(F)(F)F)c(NCc4cc(F)c(Cl)cc4F)nc3[C@@H]1C)n2C[C@@H]1CCO1` [Compound I-177], the Emax turned out to be 113% and it took 0.0195 nM to reach a half-maximal effect (EC50).

With `C[C@H]1c2nc(OCc3ccc(Cl)cc3F)c(C(F)(F)F)cc2CCN1Cc1nc2c(-c3cnn(C)c3)cc(C(=O)O)cc2n1C[C@@H]1CCO1` [Compound I-178], the Emax amounted to 99.7% and the EC50 came to 12.4 nM.

With `Cc1cc(-c2cc(C(=O)O)cc3c2nc(CN2CCc4cc(C(F)(F)F)c(OCc5ccc(Cl)cc5F)nc4[C@@H]2C)n3C[C@@H]2CCO2)on1` [Compound I-179], the Emax worked out at 96.3% and the EC50 was 1.46 nM.

Turning to `C[C@H]1c2nc(OCc3ccc(Cl)c4ccoc34)c(C#N)cc2CCN1Cc1nc2c(Cl)cc(C(=O)O)cc2n1C[C@@H]1CCO1` [Compound I-180], the Emax stood at 111% and the EC50 was 0.28 nM.

Take `C[C@H]1c2nc(OCc3ccccc3Cl)c(C#N)cc2CCN1Cc1nc2c(Cl)cc(C(=O)O)cc2n1C[C@@H]1CCO1` [Compound I-181]: the Emax was 120% and a half-maximal effect (EC50) was put at 0.531 nM.

For the molecule `C[C@H]1c2nc(OCc3ccc(F)cc3Cl)c(C#N)cc2CCN1Cc1nc2c(Cl)cc(C(=O)O)cc2n1C[C@@H]1CCO1` [Compound I-182], the Emax was found to be 119% and the EC50 worked out at 0.173 nM.

As for `C[C@H]1c2nc(OCc3c(F)cc(F)cc3F)c(C#N)cc2CCN1Cc1nc2c(Cl)cc(C(=O)O)cc2n1C[C@@H]1CCO1` [Compound I-183], the Emax is 135% and the EC50 was found to be 0.151 nM.

In the case of `C[C@H]1c2nc(OCc3ccc(Cl)cc3F)c(C#N)cc2CCN1Cc1nc2c(Cl)cc(C(=O)O)cc2n1C[C@@H]1CCO1` [Compound I-184], the Emax is 118% and a half-maximal response (EC50) required 0.073 nM.

In the case of `C[C@H]1c2nc(OCc3c(F)cc(Cl)cc3F)c(C#N)cc2CCN1Cc1nc2c(Cl)cc(C(=O)O)cc2n1C[C@@H]1CCO1` [Compound I-185], the Emax came to 122% and the EC50 was 0.0569 nM.

As for `C[C@H]1c2nc(OCc3ccc(OC(F)F)cc3F)c(C#N)cc2CCN1Cc1nc2c(Cl)cc(C(=O)O)cc2n1C[C@@H]1CCO1` [Compound I-186], the Emax turned out to be 123% and the EC50 is 0.466 nM.

For `COc1cc(Cl)ccc1COc1nc2c(cc1C#N)CCN(Cc1nc3c(Cl)cc(C(=O)O)cc3n1C[C@@H]1CCO1)[C@H]2C` [Compound I-187], the maximum response (Emax) was 137% and it took 0.04 nM to reach a half-maximal effect (EC50).

For the molecule `C[C@H]1c2nc(OCc3cc(F)c(Cl)cc3F)c(C#N)cc2CCN1Cc1nc2c(Cl)cc(C(=O)O)cc2n1C[C@@H]1CCO1` [Compound I-188], the Emax amounted to 120% and the response was half-maximal at 0.119 nM (EC50).

Consider `C[C@H]1c2nc(OCc3ccc(Cl)cc3)c(C#N)cc2CCN1Cc1nc2c(Cl)cc(C(=O)O)cc2n1C[C@@H]1CCO1` [Compound I-189], for which the Emax came out at 124% and a half-maximal response (EC50) required 0.222 nM.
